Laboratory results as given in the supplement of paper PMC11208160.

assay: recombinant barcode read abundance after kanamycin selection (control-corrected) (log10(CPM+1)); higher = more efficient recombination; sequences stand for … in AGTGCAGAGAAAATCGGCCAGTTTTCTCTGCCTGCAGTCCGCATGCCGT…AGATTTATGCAGCGGACTGCCTTTCTCCCAAAGTGATAAACCGGACAGTATCATGGACCGGTTTTCCCGGTAATCCGTATTTGCAAGGTTGGTTTCACT; site = the 11-nt target
Method in brief: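 Targets were screened in pooled form in E. coli against IS621 bridge RNA target-binding loops. Recombination efficiency is based on barcode counts at recombinant junctions in counts per million, averaged and corrected for the control. Numbers are shown as log10(CPM+1), with duplicate plates on chloramphenicol/ampicillin LB agar (control) or chloramphenicol/ampicillin/kanamycin with 0.1 mM IPTG.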
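Note: IS621 recombinase and bridge RNA in Escherichia coli cells.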

Row | Sequence | recombinant barcode read abundance (log10)
1 | AGCAGCACTTGGGTTCTAACCTGTTGCCT (site AGCAGCACTAG) | 0.731
2 | CTGTGGACTTGGGTTCTAACCTGTTGCAG (site CTCTGGACTGT) | 0
3 | CTTCGAGCTTGGGTTCTAACCTGTTGCCG (site CTTCGAGCTCA) | 0.112
4 | CGGACGCCTTGGGTTCTAACCTGTTGCCT (site CGGACGGCTAG) | 1.51
5 | CAAACTCCTTGGGTTCTAACCTGTTGCAT (site CAAACTCCTAA) | 0.116
6 | AACCAGTCTTGGGTTCTAACCTGTTGCGA (site AACCAGTCTTC) | 1.38
7 | AGGGTCGCTTGGGTTCTAACCTGTTGCCT (site AGGGTCGCTAG) | 2.5
8 | AGAACTACTTGGGTTCTAACCTGTTGCCT (site AGAACTACTAG) | 0.384
9 | GACCTACCTTGGGTTCTAACCTGTTGCCT (site GACCTACCTAG) | 1.8
10 | GTGTATACTTGGGTTCTAACCTGTTGCCT (site GTCTATACTAG) | 0.173
11 | CTTGGGTCTTGGGTTCTAACCTGTTGCCT (site CTTGGGTCTAG) | 0.998
12 | TATACAGCTTGGGTTCTAACCTGTTGCCT (site TACACAGCTAG) | 0.192
13 | CTAGACACTTGGGTTCTAACCTGTTGCGG (site CTAGACACTCC) | 2.14
14 | TCTGGGGCTTGGGTTCTAACCTGTTGCCG (site TCTGGGGCTCC) | 1.44
15 | TAGTAAGCTTGGGTTCTAACCTGTTGCCT (site TAGTATCCTAG) | 0.088
16 | GAGCAACCTTGGGTTCTAACCTGTTGCTT (site ATAAGCTCTCG) | 0.25
17 | CTGGATCCTTGGGTTCTAACCTGTTGCCT (site CTCGACCCTAG) | 0.0729
18 | GGCACCACTTGGGTTCTAACCTGTTGCCT (site GGCACTACTAG) | 0.0174
19 | CATGCGACTTGGGTTCTAACCTGTTGCTG (site CATGCGACTCA) | 0.459
20 | GCTCGAACTTGGGTTCTAACCTGTTGCCT (site GCTCGAACTAG) | 0.38
21 | TCGTGCTCTTGGGTTCTAACCTGTTGCCT (site TCGTGCGCTAG) | 0.193
22 | ACGCAATCTTGGGTTCTAACCTGTTGCCT (site ACGCACTCTAG) | 0.0895

Row | Sequence | recombinant barcode read abundance (log10)
23 | TCTAATCCTTGGGTTCTAACCTGTTGCAT (site TCTAATCCTAT) | 0.025
24 | CATAGTCCTTGGGTTCTAACCTGTTGCCT (site CATAGTCCTAG) | 0.605
25 | AATTAGTCTTGGGTTCTAACCTGTTGCGG (site AATTAGTCTCC) | 2.2
26 | CAATGGTCTTGGGTTCTAACCTGTTGCCT (site CAATGGTCTAG) | 1.54
27 | AAGCATTCTTGGGTTCTAACCTGTTGCCT (site AAGCATTCTAG) | 1.81
28 | TAGGCGCCTTGGGTTCTAACCTGTTGCGT (site TAGGCGCCTAA) | 0.0787
29 | AGTCTAGCTTGGGTTCTAACCTGTTGCTA (site AGTCTAGCTTA) | 0.175
30 | TTCTAGACTTGGGTTCTAACCTGTTGCGG (site TCCTAGACTCC) | 0.189
31 | AAAAGTCCTTGGGTTCTAACCTGTTGCCT (site AAGAGTCCTAC) | 0.0517
32 | GAAGCGCCTTGGGTTCTAACCTGTTGCCT (site GAAGAGCCTAG) | 0.0683
33 | CAGAGCTCTTGGGTTCTAACCTGTTGCCG (site CAGAGCTCTCG) | 2.05
34 | ACCCTAGCTTGGGTTCTAACCTGTTGCCA (site ATCGTAGCTTG) | 0.0661
35 | GGGAACCCTTGGGTTCTAACCTGTTGCTT (site GGGAACCCTTA) | 0.149
36 | GGCACTACTTGGGTTCTAACCTGTTGCCT (site GGCACGACTAG) | 0.166
37 | GACAGACCTTGGGTTCTAACCTGTTGCCT (site GACAGACCTAG) | 1.72
38 | TCGCACTCTTGGGTTCTAACCTGTTGCCT (site TCGCACTCTAG) | 0.0694
39 | AGGTTCCCTTGGGTTCTAACCTGTTGCTA (site AGGTTCCCTTA) | 1.32
40 | AGCTCCGCTTGGGTTCTAACCTGTTGCCT (site AGCTCCGCTAG) | 0.222
41 | AATTGCCCTTGGGTTCTAACCTGTTGCCT (site ATTTGCCCTAG) | 0.166
42 | TAGGTCCCTTGGGTTCTAACCTGTTGCAT (site TAGGTCCCTAT) | 1.85
43 | CGAATCTCTTGGGTTCTAACCTGTTGCCT (site CGAATCGCTAG) | 0
44 | TACATCCCTTGGGTTCTAACCTGTTGCCC (site TACATCCCTGG) | 0.646

Row | Sequence | recombinant barcode read abundance (log10)
45 | TGGCCCTCTTGGGTTCTAACCTGTTGCTG (site TGGCCCTCTCA) | 2.31
46 | TCCTTAGCTTGGGTTCTAACCTGTTGCCT (site TCCTTAGCTAG) | 0.579
47 | TGGACTTCTTGGGTTCTAACCTGTTGCTT (site TGGAATTCTAA) | 0.0677
48 | TCACGTCCTTGGGTTCTAACCTGTTGCGT (site TCACGTCCTAT) | 0.295
49 | CGCCTAACTTGGGTTCTAACCTGTTGCTT (site CGCCTAACTAA) | 0.126
50 | ATTCCATCTTGGGTTCTAACCTGTTGCCT (site ATACCATCTAG) | 0.57
51 | TCCCATTCTTGGGTTCTAACCTGTTGCCT (site TCCCATTCTAG) | 0.115
52 | AGGTCTGCTTGGGTTCTAACCTGTTGCCT (site AGGTATGCTAG) | 0.321
53 | TTCTATGCTTGGGTTCTAACCTGTTGCGT (site AAGCGCTCTCA) | 0.0654
54 | GACGGATCTTGGGTTCTAACCTGTTGCTT (site GACGGATCTAG) | 0.197
55 | AATAGGGCTTGGGTTCTAACCTGTTGCGG (site ACTAGGGCTCC) | 0.294
56 | CGAGAACCTTGGGTTCTAACCTGTTGCCT (site CGAGAACCTAG) | 1.67
57 | TAGGAGCCTTGGGTTCTAACCTGTTGCGT (site TACGAACCTAC) | 0.323
58 | GCTCGAACTTGGGTTCTAACCTGTTGCCT (site GCGCGAACTAG) | 0.00752
59 | CCAAAGGCTTGGGTTCTAACCTGTTGCCT (site CCTAATGCTAG) | 0.412
60 | AGTCCTGCTTGGGTTCTAACCTGTTGCCT (site TGTCCTGCTAG) | 0.0318
61 | AGTCACACTTGGGTTCTAACCTGTTGCTA (site AGTCACACTCA) | 0.179
62 | AATTGAGCTTGGGTTCTAACCTGTTGCCT (site AATTTAGCTAG) | 0.242
63 | CACTGATCTTGGGTTCTAACCTGTTGCCT (site CACTGGTCTAG) | 0.281
64 | AAGCATCCTTGGGTTCTAACCTGTTGCCT (site ACGCATCCTAG) | 0.192
65 | CTGCTGTCTTGGGTTCTAACCTGTTGCCA (site CTGTTGTCTTG) | 0.0953
66 | TGGGTCCCTTGGGTTCTAACCTGTTGCCT (site TGAGTCCCTAG) | 2.14

Row | Sequence | recombinant barcode read abundance (log10)
67 | GTGAGCACTTGGGTTCTAACCTGTTGCGG (site GTGAGCACTCC) | 1.84
68 | CTACCTCCTTGGGTTCTAACCTGTTGCGT (site CTACTTCCTAC) | 0.37
69 | ACATGGACTTGGGTTCTAACCTGTTGCAT (site ACATGTACTAT) | 0.157
70 | TCCAACCCTTGGGTTCTAACCTGTTGCGG (site TCCAACCCTCC) | 1.78
71 | ACTTTACCTTGGGTTCTAACCTGTTGCCT (site TCTTTACCTAG) | 0.186
72 | CATTGTCCTTGGGTTCTAACCTGTTGCGT (site CATTATCCTAC) | 0.15
73 | TAGTACTCTTGGGTTCTAACCTGTTGCTG (site TAGTACTCTCA) | 1.06
74 | CTAGGATCTTGGGTTCTAACCTGTTGCGT (site CTAGGATCTAC) | 2.77
75 | CCGTAAACTTGGGTTCTAACCTGTTGCCT (site CCGTAACCTAG) | 0.0417
76 | AGTAGTTCTTGGGTTCTAACCTGTTGCAG (site AGTAGTTCTCT) | 0.683
77 | GTATCACCTTGGGTTCTAACCTGTTGCCT (site GTATCAGCTAG) | 0.187
78 | TAGTAAGCTTGGGTTCTAACCTGTTGCCT (site TAGTAAGCTAG) | 1.23
79 | ATGCAAGCTTGGGTTCTAACCTGTTGCCT (site ATGCAAGCTAG) | 1.48
80 | CGTTCGACTTGGGTTCTAACCTGTTGCCT (site CGTTCAACTAG) | 0.0692
81 | TCGATGTCTTGGGTTCTAACCTGTTGCCT (site TCGATGTCTAG) | 0.706
82 | CTCTGGGCTTGGGTTCTAACCTGTTGCCT (site CTCTTGGCTAG) | 0.198
83 | GTGGAATCTTGGGTTCTAACCTGTTGCCT (site GTGAGATCTAG) | 0.307
84 | CTTAGCTCTTGGGTTCTAACCTGTTGCCT (site CGTAGGTCTAG) | 0.009
85 | GTCGTCGCTTGGGTTCTAACCTGTTGCCT (site GTCGTCGCTAG) | 0.376
86 | TCTTGTTCTTGGGTTCTAACCTGTTGCCT (site ACTTGTTCTAG) | 0.383
